Literature values, collected in patent US20190274964A1, “NEW IMPROVED COMPOSITION OF RACECADOTRIL” (JOHNSON & JOHNSON CONSUMER INC., priority 2016, published 2019).

Test system: castor-oil induced diarrhea
Details: rats

| Compound | Inhibition of castor-oil induced diarrhea | Cumulative stool weight following challenge with castor oil (pre-treatment p.o.) | Time to onset (pre-treatment p.o., dose-response relationship could not be established) | Protection against diarrhea as measured by cumulative stool weight and time to onset (intravenous administration, most prominent during first two hours following challenge) |
| --- | --- | --- | --- | --- |
| CC(=O)SCC(Cc1ccccc1)C(=O)NCC(=O)OCc1ccccc1 (centres unmarked) [Racecadotril, benzyl N-[3-(acetylthio)-2 benzylpropanoyl] glycinate] | inhibit castor-oil induced diarrhea | reduction in cumulative stool weight | significantly delayed |  |
| O=C(O)CNC(=O)C(CS)Cc1ccccc1 (centres unmarked) [thiorphan] | inhibit castor-oil induced diarrhea |  |  | dose-dependent protection against diarrhea |
